Experiment: molar heat capacity at constant pressure
Conditions: 101.33 kPa

CC12CC3CC(C1)CC(C)(C3)C2 [1,3-dimethyladamantane]
Conditions | molar heat capacity at constant pressure [J/K/mol]
164.17 K, Crystal 2 | 123.65
165.15 K, Crystal 2 | 125.01
166.14 K, Crystal 2 | 125.6
167.12 K, Crystal 2 | 126.03
168.11 K, Crystal 2 | 127.28
169.09 K, Crystal 2 | 127.61
170.07 K, Crystal 2 | 128.22
171.06 K, Crystal 2 | 129.42
172.04 K, Crystal 2 | 130.05
173.02 K, Crystal 2 | 130.24
174 K, Crystal 2 | 130.98
174.98 K, Crystal 2 | 131.94
175.95 K, Crystal 2 | 133.61
177.89 K, Crystal 2 | 134.48
178.87 K, Crystal 2 | 134.87
179.85 K, Crystal 2 | 135.66
180.58 K, Crystal 2 | 136.61
181.56 K, Crystal 2 | 136.89
182.53 K, Crystal 2 | 137.98
183.51 K, Crystal 2 | 138.41
184.48 K, Crystal 2 | 139.16
185.46 K, Crystal 2 | 140.28
186.43 K, Crystal 2 | 141.09
187.4 K, Crystal 2 | 142.02
189.35 K, Crystal 2 | 143.47
190.3 K, Crystal 2 | 143.86
194.17 K, Crystal 2 | 146.97
195.13 K, Crystal 2 | 148.03
197.07 K, Crystal 2 | 149.99
198.04 K, Crystal 2 | 150.21
198.92 K, Crystal 2 | 151.08
199.88 K, Crystal 2 | 152.08
201.81 K, Crystal 2 | 154.34
202.78 K, Crystal 2 | 154.59
203.74 K, Crystal 2 | 155.44
204.71 K, Crystal 2 | 156.27
205.67 K, Crystal 2 | 156.84
206.64 K, Crystal 2 | 157.68
207.51 K, Crystal 2 | 158.4
208.55 K, Crystal 2 | 158.98
209.51 K, Crystal 2 | 160.26
210.47 K, Crystal 2 | 161.38
211.43 K, Crystal 2 | 162.2
212.27 K, Crystal 2 | 162.95
213.23 K, Crystal 2 | 163.97
214.19 K, Crystal 2 | 164.82
215.15 K, Crystal 2 | 165.6
216.12 K, Crystal 2 | 166.3
217.08 K, Crystal 2 | 166.99
218.03 K, Crystal 2 | 167.93
218.99 K, Crystal 2 | 169.35
219.95 K, Crystal 2 | 170.97
225.79 K, Crystal 1 | 199.33
226.66 K, Crystal 1 | 199.97
227.53 K, Crystal 1 | 201.06
228.4 K, Crystal 1 | 201.46
230.04 K, Crystal 1 | 202.98
230.88 K, Crystal 1 | 203.84
230.9 K, Crystal 1 | 202.87
231.76 K, Crystal 1 | 203.35
232.42 K, Crystal 1 | 205.24
233.95 K, Crystal 1 | 206.13
235.48 K, Crystal 1 | 207.28
237 K, Crystal 1 | 208.26
238.51 K, Crystal 1 | 209.76
240.02 K, Crystal 1 | 210.33
241.45 K, Crystal 1 | 210.84
242.96 K, Crystal 1 | 212.78
244.46 K, Crystal 1 | 214.29
251.29 K, Liquid | 225.79
252.68 K, Liquid | 226.58
254.08 K, Liquid | 227.55
255.49 K, Liquid | 228.41
256.89 K, Liquid | 229.48
258.3 K, Liquid | 230.29
259.7 K, Liquid | 231
261.1 K, Liquid | 232.08
262.5 K, Liquid | 232.76
263.89 K, Liquid | 233.85
265.29 K, Liquid | 235.31
266.68 K, Liquid | 235.54
268.08 K, Liquid | 236.58
269.46 K, Liquid | 237.84
270.85 K, Liquid | 239.09
272.24 K, Liquid | 239.93
273.56 K, Liquid | 240.47
274.94 K, Liquid | 241.87
277.72 K, Liquid | 243.58
279.1 K, Liquid | 244.65
280.48 K, Liquid | 245.61
281.85 K, Liquid | 246.79
283.23 K, Liquid | 247.54
284.61 K, Liquid | 248.53
285.98 K, Liquid | 249.45
287.36 K, Liquid | 250.28
288.73 K, Liquid | 251.39
290.1 K, Liquid | 252.27
291.46 K, Liquid | 253.18
292.84 K, Liquid | 254.46
294.2 K, Liquid | 254.72
295.48 K, Liquid | 256.04
296.85 K, Liquid | 256.83
298.22 K, Liquid | 258.31
299.58 K, Liquid | 259.27
300.95 K, Liquid | 260.05
302.3 K, Liquid | 260.79
303.66 K, Liquid | 261.66
306.37 K, Liquid | 263.51
307.73 K, Liquid | 264.36
309.08 K, Liquid | 265.4
310.42 K, Liquid | 266.59
311.76 K, Liquid | 267.05
313.08 K, Liquid | 268.41
314.41 K, Liquid | 269.34
315.76 K, Liquid | 270.21
317 K, Liquid | 270.69
318.33 K, Liquid | 272.36
319.67 K, Liquid | 272.93
321.02 K, Liquid | 273.59
322.36 K, Liquid | 274.52
323.7 K, Liquid | 275.69
325.04 K, Liquid | 276.85
326.38 K, Liquid | 276.96
327.72 K, Liquid | 278.17
329.06 K, Liquid | 279.49
330.4 K, Liquid | 280.25
331.73 K, Liquid | 281.52
334.39 K, Liquid | 283.43
335.72 K, Liquid | 284.46
337.04 K, Liquid | 285.09
338.23 K, Liquid | 285.9
339.56 K, Liquid | 286.67
340.88 K, Liquid | 287.92
342.17 K, Liquid | 289.16
343.47 K, Liquid | 290.19
344.79 K, Liquid | 291.02
346.09 K, Liquid | 292.18
347.39 K, Liquid | 292.25
348.71 K, Liquid | 293.14
350.02 K, Liquid | 294.11
351.34 K, Liquid | 294.99
352.65 K, Liquid | 295.66
353.96 K, Liquid | 296.46
355.26 K, Liquid | 297.51
356.57 K, Liquid | 298.73
357.86 K, Liquid | 298.97
359 K, Liquid | 299.74
